In patent publication US20090203737A1, “Pyrrole Derivatives as Positive Allosteric Modulators of Metabotropic Receptors” (priority 2005, published 2009):

Assays:
rat mGluR5 receptor = molecular target: T1, rat mGluR5 receptor (Rattus norvegicus, UniProt P31424); experiment: mGluR5 assay on HEK-expressing rat mGluR5 (fluorescent cell based Ca2+ mobilization assay); settings: HEK-293 cells stably expressing rat mGluR5; no co-addition of glutamate; mean of at least three independent experiments in duplicate; read-out: Ca++ Flux (mean EC50)
T1 construct: expressed in transfected cells
Procedure: Positive functional expression of HEK-293 cells stably expressing rat mGluR5 receptor was determined by measuring intracellular Ca^2+ changes using a Fluorometric Imaging Plate Reader (FLIPR, Molecular Devices, Sunnyvale, Calif.) in response to glutamate or selective known mGluR5 agonists and antagonists. Rat mGluR5 RT-PCR products in HEK-293 cells were sequenced and found 100% identical to rat mGluR5 Genbank reference sequence (NM_017012). HEK-293 cells expressing rmGluR5 were maintained in media containing DMEM, dialyzed Fetal Bovine Serum (10%), Glutamax™ (2 mM), Penicillin (100 units/ml), Streptomycin (100 μg/ml), Geneticin (100 μg/ml) and Hygromycin-B (40 μg/ml) at 37° C./5% CO2.
After one day of incubation, cells were washed with assay buffer containing: 142 mM NaCl, 6 mM KCl, 1 mM […], 1 mM CaCl2, 20 mM HEPES, 1 g/L glucose, 0.125 mM sulfinpyrazone, pH 7.4. After 60 min of loading with 4 uM Fluo-4 (TefLabs, Austin, Tex.), the cells were washed three times with 50 μl of PBS Buffer and resuspended in 45 μl of assay Buffer. The plates were then transferred to a Fluorometric Imaging Plate Reader (FLIPR, Molecular Devices, Sunnyvale, Calif.) for the assessment of intracellular calcium flux. After monitoring the baseline fluorescence for 10 seconds, increasing concentrations of representative compound (from 0.01 to 60 μM) of the present invention diluted in Assay Buffer (15 μl of 4× dilutions) was added to the cell. The final DMSO concentration in the assay was 0.3%. In each experiment, fluorescence was then monitored as a function of time for 3 minutes and the data analyzed using Microsoft Excel and GraphPad Prism. Each data point was also measured two times.
Under these experimental conditions, this HEK-rat mGluR5 cell line is able to directly detect positive allosteric modulators without the need of co-addition of glutamate or mGluR5 agonist.
The concentration-response curves of representative compounds of the present invention were generated using the Prism GraphPad software (Graph Pad Inc, San Diego, USA). The curves were fitted to a four-parameter logistic equation:
(Y=Bottom+(Top−Bottom)/(1+10̂((LogEC50−X)*Hill Slope)
allowing determination of EC50 values.
The Table 1 below represents the mean EC50 obtained from at least three independent experiments of selected molecules performed in duplicate.

T1 sequence (P31424 21-1171 isoform P31424-2 limits assumed): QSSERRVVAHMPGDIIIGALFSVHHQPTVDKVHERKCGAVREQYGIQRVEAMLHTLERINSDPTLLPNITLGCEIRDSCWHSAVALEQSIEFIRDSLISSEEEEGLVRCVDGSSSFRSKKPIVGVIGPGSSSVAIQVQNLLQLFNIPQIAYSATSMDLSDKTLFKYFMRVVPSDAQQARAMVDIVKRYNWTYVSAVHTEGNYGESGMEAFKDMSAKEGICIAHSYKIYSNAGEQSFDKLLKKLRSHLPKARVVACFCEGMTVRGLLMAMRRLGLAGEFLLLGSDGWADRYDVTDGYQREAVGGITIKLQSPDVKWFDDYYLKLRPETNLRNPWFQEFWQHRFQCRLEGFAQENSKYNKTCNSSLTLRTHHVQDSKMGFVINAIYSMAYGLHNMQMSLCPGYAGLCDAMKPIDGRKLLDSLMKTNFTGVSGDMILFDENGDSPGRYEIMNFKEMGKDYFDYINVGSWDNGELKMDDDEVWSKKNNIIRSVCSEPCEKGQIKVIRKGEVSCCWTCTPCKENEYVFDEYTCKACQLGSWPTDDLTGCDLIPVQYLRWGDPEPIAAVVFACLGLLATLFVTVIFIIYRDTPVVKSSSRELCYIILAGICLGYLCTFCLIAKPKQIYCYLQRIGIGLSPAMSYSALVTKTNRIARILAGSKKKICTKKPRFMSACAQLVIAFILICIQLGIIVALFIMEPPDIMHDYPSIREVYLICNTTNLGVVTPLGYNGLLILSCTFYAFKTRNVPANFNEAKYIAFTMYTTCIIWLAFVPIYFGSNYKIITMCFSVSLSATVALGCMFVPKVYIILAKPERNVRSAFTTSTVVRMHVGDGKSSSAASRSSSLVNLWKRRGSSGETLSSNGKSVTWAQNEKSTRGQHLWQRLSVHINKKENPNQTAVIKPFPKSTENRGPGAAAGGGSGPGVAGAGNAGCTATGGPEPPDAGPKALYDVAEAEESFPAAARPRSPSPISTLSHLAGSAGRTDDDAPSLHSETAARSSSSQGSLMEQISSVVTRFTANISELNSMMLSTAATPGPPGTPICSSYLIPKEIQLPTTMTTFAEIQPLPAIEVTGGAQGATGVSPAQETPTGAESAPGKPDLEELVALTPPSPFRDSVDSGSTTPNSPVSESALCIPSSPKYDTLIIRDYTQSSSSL

Row | Compound | EC50 (rat mGluR5 receptor) | melting point
1 | O=C(c1ccc(F)c(F)c1)N1CCCC(c2noc(-c3ccc[nH]3)n2)C1 (centres unmarked) [Example 5, (3,4-Difluoro-phenyl)-{3-[5-(1H-pyrrol-2-yl)-[1,2,4]oxadiazol-3-yl]-piperidin-1-yl}-methanone] | < 1000 nM | 177 °C
2 | O=C(c1ccc(F)cc1F)N1CCCC(c2noc(-c3ccc[nH]3)n2)C1 (centres unmarked) [Example 6, (2,4-Difluoro-phenyl)-{3-[5-(1H-pyrrol-2-yl)-[1,2,4]oxadiazol-3-yl]-piperidin-1-yl}-methanone] | < 1000 nM | 151 °C
3 | O=C(c1ccc(F)cc1)N1CCCC(c2noc(-c3ccc[nH]3)n2)C1 (centres unmarked) [Example 7, (4-Fluoro-phenyl)-{3-[5-(1H-pyrrol-2-yl)-[1,2,4]oxadiazol-3-yl]-piperidin-1-yl}-methanone] | < 1000 nM | 158 °C
4 | O=C(c1ccc(F)nc1)N1CCCC(c2noc(-c3ccc[nH]3)n2)C1 (centres unmarked) [Example 8, (6-Fluoro-pyridin-3-yl)-{3-[5-(1H-pyrrol-2-yl)-[1,2,4]oxadiazol-3-yl]-piperidin-1-yl}-methanone] | 1000 to 10000 nM | 143 °C
5 | Cc1cc(F)ccc1C(=O)N1CCCC(c2noc(-c3ccc[nH]3)n2)C1 (centres unmarked) [Example 9, (4-Fluoro-2-methyl-phenyl)-{3-[5-(1H-pyrrol-2-yl)-[1,2,4]oxadiazol-3-yl]-piperidin-1-yl}-methanone] | 1000 to 10000 nM | 203 °C
6 | O=C(c1ccc(F)c(F)c1)N1CCC[C@H](c2noc(-c3ccc[nH]3)n2)C1 [Example 10, (3,4-Difluoro-phenyl)-{(S)-3-[5-(1H-pyrrol-2-yl)-[1,2,4]oxadiazol-3-yl]-piperidin-1-yl}-methanone] | < 1000 nM | 168 °C
7 | O=C(c1ccc(F)cc1)N1CCCC(c2noc(-c3cc4ccccc4[nH]3)n2)C1 (centres unmarked) [Example 11, (4-Fluoro-phenyl)-{3-[5-(1H-indol-2-yl)-[1,2,4]oxadiazol-3-yl]-piperidin-1-yl}-methanone] | 1000 to 10000 nM | 199 to 201 °C
8 | O=C(c1ccc(F)c(F)c1)N1CCC[C@H](c2nc(-c3cc4ccccc4[nH]3)no2)C1 [Example 15, (3,4-Difluoro-phenyl)-{(S)-3-[3-(1H-indol-2-yl)-[1,2,4]oxadiazol-5-yl]-piperidin-1-yl}-methanone] | > 10000 nM | 93 to 94 °C
9 | O=C(c1ccc(F)c(F)c1)N1CCCC(c2noc(-c3ncc[nH]3)n2)C1 (centres unmarked) [Example 18, (3,4-Difluoro-phenyl)-{3-[5-(1H-imidazol-2-yl)-[1,2,4]oxadiazol-3-yl]-piperidin-1-yl}-methanone] | 1000 to 10000 nM | 148.5 to 148.9 °C
10 | Cc1oncc1C(=O)N1CCC[C@H](c2nc(-c3cc4ccccc4[nH]3)no2)C1 [Example 19, {(S)-3-[3-(1H-Indol-2-yl)-[1,2,4]oxadiazol-5-yl]-piperidin-1-yl}-(5-methyl-isoxazol-4-yl)-methanone] | 1000 to 10000 nM | 163 to 164 °C
11 | O=C(c1ccc(F)nc1)N1CCC[C@H](c2noc(-c3ccc[nH]3)n2)C1 [Example 21, (6-Fluoro-pyridin-3-yl)-{(S)-3-[5-(1H-pyrrol-2-yl)-[1,2,4]oxadiazol-3-yl]-piperidin-1-yl}-methanone] | < 1000 nM | 147 °C
12 | O=C(c1ccc(F)cc1)N1CCC[C@H](c2noc(-c3ccc[nH]3)n2)C1 [Example 22, (4-Fluoro-phenyl)-{(S)-3-[5-(1H-pyrrol-2-yl)-[1,2,4]oxadiazol-3-yl]-piperidin-1-yl}-methanone] | < 1000 nM | 181 °C
13 | O=C(c1ccc(F)nc1)N1CCCC(c2noc(-c3cc4ccccc4[nH]3)n2)C1 (centres unmarked) [Example 23, (6-Fluoro-pyridin-3-yl)-{3-[5-(1H-indol-2-yl)-[1,2,4]oxadiazol-3-yl]-piperidin-1-yl}-methanone] | 1000 to 10000 nM | 163.1 to 164.3 °C
14 | O=C(c1ccnc(F)c1)N1CCC[C@H](c2noc(-c3cc(F)c[nH]3)n2)C1 [Example 60, (2-Fluoro-pyridin-4-yl)-{(s)-3-[5-(4-fluoro-1H-pyrrol-2-yl)-[1,2,4]oxadiazol-3-yl]-piperidin-1-yl}-methanone] | < 1000 nM | 
15 | O=C(c1ccc(F)nc1)N1CCC[C@H](c2noc(-c3cc(F)c[nH]3)n2)C1 [Example 64, (6-Fluoro-pyridin-3-yl)-{(S)-3-[5-(4-fluoro-1H-pyrrol-2-yl)-[1,2,4]oxadiazol-3-yl]-piperidin-1-yl}-methanone] | 1000 to 10000 nM | 
16 | O=C(c1ccc(F)nc1)N1CCC[C@H](c2noc(-c3cc(C(F)(F)F)c[nH]3)n2)C1 [Example 78, (6-Fluoro-pyridin-3-yl)-{(S)-3-[5-(4-trifluoromethyl-1H-pyrrol-2-yl)-[1,2,4]oxadiazol-3-yl]-piperidin-1-yl}-methanone] |  | 165.7 °C

Continued, values first:

Row | EC50 (rat mGluR5 receptor) | melting point | Compound
17 | 1000 to 10000 nM | 131 to 132 °C | O=C(c1ccc(F)nc1)N1CCC[C@H](c2nc(-c3ccc[nH]3)no2)C1 [Example 4, (6-Fluoro-pyridin-3-yl)-{(S)-3-[3-(1H-pyrrol-2-yl)-[1,2,4]oxadiazol-5-yl]-piperidin 1-yl}-methanone]
18 | > 10000 nM | 125 to 127 °C | Cc1oncc1C(=O)N1CCC[C@H](c2nc(-c3ccc[nH]3)no2)C1 [Example 20, (5-Methyl-isoxazol-4-yl)-{(S)-3-[3-(1H-pyrrol-2-yl)-[1,2,4]oxadiazol-5-yl]-piperidin-1-yl}-methanone]
19 | 1000 to 10000 nM | 156 to 157 °C | O=C(c1ccc(F)c(F)c1)N1CCC[C@H](c2nc(-c3ncc[nH]3)no2)C1 [Example 25, (3,4-Difluoro-phenyl)-{(S)-3-[3-(1H-imidazol-2-yl)-[1,2,4]oxadiazol-5-yl]-piperidin-1-yl}-methanone]
20 | 1000 to 10000 nM |  | O=C(c1ccc(F)nc1)N1CCC[C@H](c2nc(-c3cc(Cl)c[nH]3)no2)C1 [Example 65, {(S)-3-[3-(4-Chloro-1H-pyrrol-2-yl)-[1,2,4]oxadiazol-5-yl]-piperidin-1-yl}-(6-fluoro-pyridin-3-yl)-methanone]
21 | 1000 to 10000 nM |  | O=C(c1ccnc(F)c1)N1CCC[C@H](c2nc(-c3cc(Cl)c[nH]3)no2)C1 [Example 66, {(S)-3-[3-(4-Chloro-1H-pyrrol-2-yl)-[1,2,4]oxadiazol-5-yl]-piperidin-1-yl}-(2-fluoro-pyridin-4-yl)-methanone]
22 | 1000 to 10000 nM |  | O=C(c1ccncc1F)N1CCC[C@H](c2nc(-c3cc(Cl)c[nH]3)no2)C1 [Example 67, {(S)-3-[3-(4-Chloro-1H-pyrrol-2-yl)-[1,2,4]oxadiazol-5-yl]-piperidin-1-yl}-(3-fluoro-pyridin-4-yl)-methanone]
23 | 1000 to 10000 nM |  | Cc1oncc1C(=O)N1CCC[C@H](c2nc(-c3cc(Cl)c[nH]3)no2)C1 [Example 68, {(S)-3-[3-(4-Chloro-1H-pyrrol-2-yl)-[1,2,4]oxadiazol-5-yl]-piperidin-1-yl}-(5-methyl-isoxazol-4-yl)-methanone]
24 | 1000 to 10000 nM |  | O=C(c1ccncc1F)N1CCC[C@H](c2nc(-c3cc(Br)c[nH]3)no2)C1 [Example 69, {(S)-3-[3-(4-Bromo-1h-pyrrol-2-yl)-[1,2,4]oxadiazol-5-yl]-piperidin-1-yl}-(3-fluoro-pyridin-4-yl)-methanone]
25 | 1000 to 10000 nM |  | O=C(c1ccncc1F)N1CCC[C@H](c2nc(-c3cc(F)c[nH]3)no2)C1 [Example 70, (3-Fluoro-pyridin-4-yl)-{(S)-3-[3-(4-fluoro-1H-pyrrol-2-yl)-[1,2,4]oxadiazol-5-yl]-piperidin-1-yl}-methanone]
26 | 1000 to 10000 nM |  | Cc1c[nH]c(-c2noc([C@H]3CCCN(C(=O)c4ccncc4F)C3)n2)c1 [Example 71, (3-Fluoro-pyridin-4-yl)-{(S)-3-[3-(4-methyl-1H-pyrrol-2-yl)-[1,2,4]oxadiazol-5-Yl]-piperidin-1-yl}-methanone]
27 | 1000 to 10000 nM |  | O=C(c1ccncc1F)N1CCC[C@H](c2noc(-c3cc(C(F)(F)F)c[nH]3)n2)C1 [Example 77, (3-Fluoro-pyridin-4-yl)-{(S)-3-[5-(4-trifluoromethyl-1H-pyrrol-2-yl)[1,2,4]oxadiazol-3-yl]-piperidin-1-yl}-methanone]
28 | 1000 to 10000 nM |  | Cc1c[nH]c(-c2noc([C@H]3CCCN(C(=O)c4ccc(F)c(F)c4)C3)n2)n1 [Example 79, (3,4-Difluoro-phenyl)-{(S)-3-[3-(4-methyl-1H-imidazol-2-yl)-[1,2,4]oxadiazol-5-yl]-piperidin-1-yl}-methanone]
